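A five-concentration, 48-hour dose response in 96-well plates underlies each endpoint, interpolated linearly between surrounding concentrations. Abbreviation: GI50, concentration required for 50% inhibition of growth. At the TGI there is no net growth.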
What was measured:
Experiment in all cases: NCI anticancer screen, dose series, 48 h
[1] = test system: UO-31 renal
[2] = test system: OVCAR-5 ovarian
[3] = test system: HCT-116 colon
[4] = test system: OVCAR-4 ovarian
[5] = test system: SK-OV-3 ovarian
[6] = test system: SF-268 CNS
[7] = test system: MALME-3M melanoma
[8] = test system: RXF 393 renal
[9] = test system: UACC-62 melanoma
[10] = test system: MDA-MB-231 breast

Structure (SMILES) | TGI [1] | TGI [2] | TGI [3] | TGI [4] | TGI [5] | TGI [6] | TGI [7] | TGI [8] | TGI [9] | TGI [10] | GI50 [4] | GI50 [10] | GI50 [6] | GI50 [7] | GI50 [8] | GI50 [1] | GI50 [2] | GI50 [3] | GI50 [5] | GI50 [9]
CC1=C2C(=CC(C)(C)C2O)C(=O)C(C)(O)C12CC2 (stereo unspecified) | 0.0291 µM | 0.0433 µM | 0.188 µM | 0.0209 µM | 0.175 µM | 0.0667 µM | 0.0337 µM | 0.0194 µM | 0.0324 µM | – | – | – | – | – | – | – | – | – | – | –
O=CN/C=C/c1ccc(O)c(O)c1 | > 100 µM | > 100 µM | > 100 µM | > 100 µM | > 100 µM | > 100 µM | > 100 µM | > 100 µM | > 100 µM | – | – | – | – | – | – | – | – | – | – | –
CCOC(=O)NC(=O)c1cn(CCCCCCOC(=O)NCCCCCCNC(=O)OCCCCCCn2cc(C(=O)NC(=O)OCC)c(=O)[nH]c2=O)c(=O)[nH]c1=O | > 100 µM | – | > 100 µM | > 100 µM | > 100 µM | > 100 µM | > 100 µM | > 100 µM | > 100 µM | – | – | – | – | – | – | – | – | – | – | –
C=C1C(=O)OC2C1C(OC(=O)/C(C)=C/C)CC(O)(CCl)C1C(O)C3OC3(C)C21O (stereo unspecified) | – | > 50 µM | 23.7 µM | > 50 µM | > 50 µM | > 50 µM | 10.6 µM | 26 µM | > 50 µM | > 50 µM | – | – | – | – | – | – | – | – | – | –
N#CC(c1nc2ccccc2nc1Cl)S(=O)(=O)c1ccccc1 (stereo unspecified) | > 100 µM | > 100 µM | > 100 µM | > 100 µM | – | > 100 µM | > 100 µM | – | > 100 µM | – | – | – | – | – | – | – | – | – | – | –
C/C=C(/COC(C)=O)C(=O)OC1C=C(C=O)C(C)(C)C=C1C (stereo unspecified) | > 100 µM | > 100 µM | > 100 µM | > 100 µM | > 100 µM | > 100 µM | > 100 µM | – | > 100 µM | > 100 µM | – | – | – | – | – | – | – | – | – | –
Cc1ccc(N2C(=O)C3C=CC(n4[nH]c(=O)n(Cc5ccccc5)c4=O)CC3C2=O)cc1 (stereo unspecified) | > 100 µM | > 100 µM | > 100 µM | – | > 100 µM | > 100 µM | > 100 µM | > 100 µM | > 100 µM | – | – | – | – | – | – | – | – | – | – | –
COC(=O)c1cc(Cl)ccc1NC(=O)c1ccc([N+](=O)[O-])cc1 | 38.7 µM | > 100 µM | 17.9 µM | 12.3 µM | 42.5 µM | – | 90.6 µM | 65.6 µM | 66.5 µM | – | – | – | – | – | – | – | – | – | – | –
COC(=O)CCC(NC(=S)N/N=C/c1ccco1)C(=O)OC (stereo unspecified) | > 100 µM | > 100 µM | > 100 µM | > 100 µM | > 100 µM | > 100 µM | > 100 µM | > 100 µM | > 100 µM | – | – | – | – | – | – | – | – | – | – | –
NC(=O)c1c(NC(=O)c2ccc3c(c2)OCO3)sc2c1CCC(=O)C2 | – | – | – | 1.79 µM | – | > 100 µM | 4.67 µM | 5.36 µM | – | 6.89 µM | 0.494 µM | 2.44 µM | 1.88 µM | 2.04 µM | 1.88 µM | – | – | – | – | –
CC(C)c1cccc2sc(NC(=O)C(=O)C(C#N)c3cccc4ccccc34)nc12 (stereo unspecified) | > 100 µM | – | > 100 µM | > 100 µM | > 100 µM | > 100 µM | > 100 µM | 92.3 µM | > 100 µM | – | – | – | – | – | – | – | – | – | – | –
O=C(Nc1cccc(NC(=O)Nc2cc(C(F)(F)F)ccc2Cl)c1)Nc1cc(C(F)(F)F)ccc1Cl | 14.7 µM | > 100 µM | 22.8 µM | 3.61 µM | 11.3 µM | 34.2 µM | 44.1 µM | – | 16.8 µM | 22 µM | 0.746 µM | 2.3 µM | 5.19 µM | 4.55 µM | – | 2.49 µM | 9.01 µM | 2.41 µM | 2.9 µM | 2.35 µM
CCCOC(=O)N1CCN(/[N+]([O-])=N/Oc2ccc([N+](=O)[O-])cc2[N+](=O)[O-])CC1 | 48.9 µM | 12.7 µM | 1.17 µM | – | – | 11.1 µM | – | 23.8 µM | 5.59 µM | 4.83 µM | – | 2.29 µM | 3.19 µM | – | 8.67 µM | 3.5 µM | 3.43 µM | 0.301 µM | – | 2.26 µM
C/C(CC(=O)Nc1ccc(Cl)cc1)=N\NC(N)=S | – | > 100 µM | > 100 µM | – | > 100 µM | > 100 µM | > 100 µM | > 100 µM | > 100 µM | – | – | – | – | – | – | – | – | – | – | –
O=C(COc1ccc(/C=C2\Oc3ccccc3C2=O)cc1)Nc1nc2c(s1)CCCC2 | > 49.5 µM | > 100 µM | > 100 µM | > 100 µM | > 100 µM | – | > 78.5 µM | – | > 100 µM | 6.38 µM | 13.1 µM | 0.709 µM | – | 1.25 µM | – | 1.87 µM | 51.2 µM | 9.94 µM | 50.2 µM | 23.2 µM
COC(=O)C1=CC2C(=O)OC1CC2C#N (stereo unspecified) | > 100 µM | – | > 100 µM | > 100 µM | > 100 µM | > 100 µM | > 100 µM | – | > 100 µM | – | – | – | – | – | – | – | – | – | – | –
COc1cc(C(=O)NC2CCN(C)CC2)c(F)cc1Nc1ncc2c(n1)N(C1CCCC1)CC(F)(F)C(=O)N2C | 10.5 µM | 14.3 µM | 12 µM | 14.1 µM | 1.02 µM | 12.1 µM | – | 15.2 µM | 13.7 µM | – | 0.396 µM | – | < 0.025 µM | – | < 0.0169 µM | – | < 0.0191 µM | < 0.0142 µM | < 0.0132 µM | < 0.0237 µM
COc1ccc(/C=C2\S/C(=N/Nc3nc(-c4ccccc4)cs3)NC2=O)cc1OC | 51.7 µM | > 100 µM | 41.6 µM | 98.1 µM | 63.7 µM | > 100 µM | – | 52 µM | 74.5 µM | 75.7 µM | – | – | – | – | – | – | – | – | – | –
O=C(Nc1ccc(Cl)c(Cl)c1)O/N=C\c1c(Cl)ccc([N+](=O)[O-])c1Cl | 2.88 µM | 3.84 µM | 3.25 µM | 3.14 µM | 17.6 µM | 9.63 µM | – | – | – | 3.41 µM | 1.74 µM | 1.56 µM | 2.81 µM | – | – | 1.45 µM | 1.86 µM | 1.49 µM | 5.82 µM | –
COc1ccc(C2=NN(c3ccccc3)C[N+](c3ccc(OC)cc3)=N2)cc1 | 71.1 µM | 70 µM | > 100 µM | 64 µM | – | > 100 µM | 47.1 µM | 72.1 µM | – | – | – | – | – | – | – | – | – | – | – | –

Source: PubChem BioAssay (NCI)
